Results on three compounds are retold here after patent US20100240754A1, “UNSATURATED FATTY AMINO ACID DERIVATIVES AND USE THEREOF IN DERMAL COSMETOLOGY” (Pierre Fabre Demo-Cosmetique, priority 2007, published 2010).

As usually defined, the inhibition is the drop in the measured response relative to a control, in per cent.

Format in all cases: cell-based, murine
Assay [1] has as its system fibroblast cell line L929. Kind of assay: In vitro assay of intracellular OASes (H2DCF-DA probe) after H2O2/iron oxidative stress. As to conditions: dose 400 μg/mL; L929, H2O2/iron stress. From the text: We have set up a model for an in vitro study of oxidative stress induced by H2O2/iron, H2O2 which massively generates intracellular OASes by a chain reaction triggered by the oxidation of membrane lipids.
This technique is based on the use of a fluorescent probe, 6-carboxy-2′, 7′ dichlorodihydrofluorescein diacetate, di(acetoxymethyl ester) (H2DCF-DA), which, once it has penetrated the cell, is deacetylated by the intracellular esterases then forming H2DCF. This product is oxidized by intracellular OASes into a highly fluorescent compound: 2′,7′-dichlorofluorescein, (DCF) (Suematsu M et al, 1996, Free Radicals Practical Approach, Punchard ed. P83-99).
Cutaneous murine fibroblast cell line L929.
The tested concentrations are non-cytotoxic concentrations. Cytoxicity was evaluated by the neutral red method, after incubation of the product for 3 hours.
The reference anti-radical product is vitamin E or α-tocopherol (MW: 430.7) (SIGMA, ref.: T-1539).
The mother solution is prepared at 400 mg/mL in DMSO and stored at −20° C. The pretreatment solution is prepared extemporaneously at 400 μg/mL in a culture medium without FCS.
For evaluating unsaturated fatty amino acid derivatives, the dilutions are prepared in the culture medium extemporaneously for a range of concentrations of 0.02, 0.2, 2 and 20 ng/mL.
The cells of the fibroblast line L929 are sown in microplates with 96 wells with a flat bottom in 100 μL of DMEM supplemented with 10% of FCS, and they are then incubated overnight at 37° C. in a humid atmosphere with 5% CO2.
The dilutions of the products to be tested and of the reference molecule are conducted in culture mediums without FCS, and then deposited in 7 wells in an amount of 100 μL per well.
The cells are then incubated for 3 hours at 37° C. in a humid atmosphere with 5% CO2.
The cells are rinsed with PBS 1× in an amount of 100 μL per well. Next they are set to incubate for 30 min at 37° C. in a humid atmosphere with 5% CO2 and with 50 μL of H2DCF-DA probe at 5 μM.
After 30 min in contact with the probe alone, the cells are incubated for 30 min at 37° C. in a humid atmosphere with […] with addition of 25 μL of H2O2 at 800 μM and 25 μL of 8 mM ferrous and ferric iron solution, in order to have final concentrations of 200 μM of H2O2 and 2 mM of ferrous and ferric iron.
The cells are then rinsed with PBS 1× in an amount of 100 μL per well, and then incubated for 30 min at 37° C. in a humid atmosphere with 5% CO2 and with 100 μL of PBS 1×.
These 1 h 30 minutes of incubation at 37° C. allow the intracellular esterases to deacetylate the H2DCF probe, oxidizable by intracellular OASes into DCF; a fluorescent compound, the formation of which is proportional to the amount of intracellular OASes.
The fluorescence intensity is read with the cytofluorimeter at λexcitation=485 nm and λemission=530 nm. It reflects the amount of produced intracellular OASes.
With the below ratio, it is possible to calculate for each concentration of tested product the % of protection against production of intracellular OASes (since the fluorescence intensity or FI expresses intracellular release of OASes).
The values indicated in Table 3 are percentages of inhibition of intracellular OAS production following an exogenous oxidative stress, relatively to <> cells (100%) and to <> cells (0%).

A further assay relates to fibroblast line L929. Kind of assay: Test of TBARS: lipid peroxidation after H2O2-Fe2+/Fe3+ stress. As to conditions: 400 μg/mL.
Another assay relates to B16-F10 line. As to the kind of experiment: Synthesis of melanin, colorimetric assay, basal and after alpha MSH stimulation. As to conditions: Mus musculus, alpha MSH-stimulated B16-F10, read-out: inhibition of melanogenesis. As to the method:
6.1) The modulating effect of unsaturated fatty amino-acid derivatives on melanogenesis was analyzed. For this, a measurement of the synthesis of melanin by a colorimetric assay is carried out on a cell line of murine melanomas: the B16-F10 line.
The effect of the products is investigated in a basal situation and after stimulating melanogenesis by a MSH for determining the depigmenting power.
The level of extracellular and intracellular melanin is then measured by spectrophotometry at a wave length of 405 nm according to the procedure (Meun, Y. J. et al.). The amount of pigment is determined by a standard range of melanin and by analysis on the Microwin software package (Berthold Biotechnologies). An assay of total proteins is conducted for samples of intracellular melanin by the BCA-Copper method at 540 nm. The standard range is produced with a standard protein, BSA (Bovine Albumin Serum).

Take `Cc1c(C)c2c(c(C)c1O)CC[C@@](C)(CCC[C@H](C)CCC[C@H](C)CCCC(C)C)O2` [Vitamin E, α-tocopherol, reference compound]: the “percentage of inhibition of intracellular OAS production (protection)” value in assay [1] turned out to be 31%. In the assay on fibroblast line L929, the “protection against lipid peroxidation, in words” value is listed as “very effectively protects cell membranes”.

With `Oc1ccc(O)cc1` [hydroquinone, reference compound], the inhibition at 1 µg/mL in the assay on B16-F10 line (1 μg/mL) is about 60%.

Take `O=C1O[C@H]([C@@H](O)CO)C(O)=C1O` [vitamin C, reference compound]: in the assay on B16-F10 line (40 μg/mL), the inhibition at 40 µg/mL is about 60%.
